By NOAEL is commonly meant the highest tested level that showed no adverse finding.

Values after ≈ are worked out from the molar mass of the structure shown.

The values below come from EPA's ToxValDB 9.5 (doi:10.2903/j.efsa.2010.1722).

In data set [1] the test system is Aphidius matricariae. The data set is described as follows: LR50; higher = less toxic. The note with it: not reported; mortality.
Data set [2] deals with Canidae. As to conditions: oral, Dog Other.
Data set [3] deals with Apis mellifera. The note with it: acute, mortality.
In data set [4] the test system is Anas platyrhynchos. The note with it: oral, mortality.
Data set [5] deals with Oncorhynchus mykiss. The note with it: chronic/long-term; duration: 28 days; growth.
Data set [6] relates to Colinus virginianus. The note with it: reproduction developmental.
The subject of data set [7] is Bibionidae. As to conditions: chronic/long-term; duration: 21 days; other.
The subject of data set [8] is Mus musculus. The note with it: acute; oral; mortality.
In data set [9] the test system is Aphidius matricariae. As to conditions: not reported; reproduction.
In data set [10] the test system is Rattus norvegicus.
Data set [11] concerns Daphnia magna. The note with it: chronic/long-term; duration: 21 days; reproduction.
The test system of data set [12] is Tagia sp. As to conditions: acute; duration: 14 days; mortality.
In data set [13] the test system is Lepomis macrochirus. As to conditions: acute; duration: 96 hours; mortality.

Turning to `C[C@H]1[C@H](c2ccc(Cl)cc2)SC(=O)N1C(=O)NC1CCCCC1` [Hexythiazox], the LR50 in [1] is above 158 g/ha. Besides, the LD50 was above 5000 mg/kg in data set [2] (acute, mortality); above 200 µg/piece in data set [3] (dermal); above 112 µg/piece in data set [3] (duration: 48 hours, oral, unspecified); above 2000 mg/kg in data set [4] (acute, unspecified); above 5000 mg/kg in data set [8]; above 5000 mg/kg in data set [10] (acute, oral, mortality). In addition, the no-observed-adverse-effect level (NOAEL) in [2] (chronic, duration: 1 years, histopathology: nonneoplastic) was determined as 2.87 mg/kg-day; in [10] (chronic, duration: 2 years, clinical chemistry) it was 3.2 mg/kg-day. Besides, the LC50 in data set [4] (short-term, feed) is above 523 mg/kg-day; in data set [12] it was above 105 mg/kg; in data set [13], 3.2 µg/mL (≈ 9.07 µM). The NOEC was determined as 0.04 mg/L in data set [5], 100 mg/kg-day in data set [6], 1.7 mg/L in [7] and 0.0061 mg/L in [11]. The molecule further returned an LEL in [9] of 158 g/ha. This molecule had an NOEL in data set [10] (chronic) of 23.5 mg/kg-day.
